Legend:
Assay type in all cases: physicochemical
[1] = Photostability evaluation
Description: Samples were packaged in LPDE bag, and stored under visible (1.2M Lux-h), UV (200 W-h/m2) and UV+visible conditions, respectively, and then evaluated.

[2] = Physical stability evaluation under stress conditions
Description: In order to evaluate physical stability, samples were packaged in the form of ((LPDE+N2)+silica gel 1 g+LDPE)+Al-Bag, and stored under stress conditions (60° C.±2° C./80% RH±5%) for 2/4 weeks before evaluation.
In table 2, initial is a result measured after preparation of salts, and S2W and S4W are results measured after two and four weeks while being exposed to stress conditions, respectively.

[3] = Hygroscopicity evaluation; details: for Individual related material: in %
Description: Samples were placed in a glass desiccator in which relative humidity was adjusted to 33%, 53%, 75%, and 93%, and then stored for two and four weeks to be evaluated.

[4] = Measurement of water solubility; details: saturated solution shaken at room temperature for 24 hours
Description: A liquid phase was taken out of the solution and filtered using a 0.22 μm PVDF filter. The filtered liquid phase was diluted 10-fold for LC analysis.
LC analysis was performed by the following method.

In the case of `C[C@@H]1CN(C(=O)CC#N)CC=C1c1cc(NC(=O)C2CC2)nc2[nH]ccc12` [Example 2, (S)—N-(4-(1-(2-cyanoacetyl)-3-methyl-1,2,3,6-tetrahydropyridin-4-yl)-1H-pyrrolo[2,3-b]pyridin-6-yl)cyclopropanecarboxamide], the Individual related material ([1]; Initial) is reported as 0.12%, the Total related material ([1]; Initial) is reported as 0.56% and the Individual related material ([1]; Solid, Control) is reported as 0.11%. It also gave a Total related material ([1]; Solid, Control) of 0.44%, an Individual related material ([1]; Solid, UV (200 W-h/m2)) of 0.11% and a Total related material ([1]; Solid, UV (200 W-h/m2)) of 0.6%. For the same molecule, the Individual related material ([1]; Solid, UV + Vis) was 0.12%, the Total related material ([1]; Solid, UV + Vis) was 0.91% and the Individual related material ([1]; Solid, UV + Vis Control) was 0.12%. For the same molecule, the Total related material ([1]; Solid, UV + Vis Control) was 0.48%, the Individual related material ([1]; Solid, Vis (1.2M Lux-h)) was 0.11% and the Total related material ([1]; Solid, Vis (1.2M Lux-h)) was 0.69%. For the same molecule, the C.I quantitative ([2]; Initial) was 18.1%, the “Content (anhydride, as anhydride)” value ([2]; Initial) was 100.7% and the Moisture ([2]; Initial) was 3.93%. For the same molecule, the “Purity: Individual related material” value ([2]; Initial) was 0.12%, the “Purity: Total related material” value ([2]; Initial) was 0.56% and the C.I quantitative ([2]; S2W: 2 weeks at 60° C./80% RH) was 17.8%. For the same molecule, the “Content (anhydride, as anhydride)” value ([2]; S2W: 2 weeks at 60° C./80% RH) was 101.4%, the Moisture ([2]; S2W: 2 weeks at 60° C./80% RH) was 3.93% and the “Purity: Individual related material” value ([2]; S2W: 2 weeks at 60° C./80% RH) was 0.11%. For the same molecule, the “Purity: Total related material” value ([2]; S2W: 2 weeks at 60° C./80% RH) was 0.63%, the C.I quantitative ([2]; S4W: 4 weeks at 60° C./80% RH) was 17.8% and the “Content (anhydride, as anhydride)” value ([2]; S4W: 4 weeks at 60° C./80% RH) was 99.2%. For the same molecule, the Moisture ([2]; S4W: 4 weeks at 60° C./80% RH) was 3.79%, the “Purity: Individual related material” value ([2]; S4W: 4 weeks at 60° C./80% RH) was 0.14% and the “Purity: Total related material” value ([2]; S4W: 4 weeks at 60° C./80% RH) was 0.58%. It also gave a Total related material ([3]; Initial) of 0.56%, a Water ([3]; Initial) of 3.93% and an Individual related material ([3]; Initial) of 0.12. It also gave a Total related material ([3]; relative humidity 33%, 2 W) of 0.53%, a Water ([3]; relative humidity 33%, 2 W) of 3.70% and an Individual related material ([3]; relative humidity 33%, 2 W) of 0.11. It also gave a Total related material ([3]; relative humidity 33%, 4 W) of 0.55%, a Water ([3]; relative humidity 33%, 4 W) of 3.94% and an Individual related material ([3]; relative humidity 33%, 4 W) of 0.10. The Total related material ([3]; relative humidity 53%, 2 W) was 0.66%, the Water ([3]; relative humidity 53%, 2 W) was 3.62% and the Individual related material ([3]; relative humidity 53%, 2 W) was 0.12. The Total related material ([3]; relative humidity 53%, 4 W) was 0.59%, the Water ([3]; relative humidity 53%, 4 W) was 3.96% and the Individual related material ([3]; relative humidity 53%, 4 W) was 0.11. For the same molecule, the Total related material ([3]; relative humidity 75%, 2 W) was 0.58%, the Water ([3]; relative humidity 75%, 2 W) was 3.78% and the Individual related material ([3]; relative humidity 75%, 2 W) was 0.11. The Total related material ([3]; relative humidity 75%, 4 W) was 0.61%, the Water ([3]; relative humidity 75%, 4 W) was 3.93% and the Individual related material ([3]; relative humidity 75%, 4 W) was 0.11. It also gave a Total related material ([3]; relative humidity 93%, 2 W) of 0.54%, a Water ([3]; relative humidity 93%, 2 W) of 3.71% and an Individual related material ([3]; relative humidity 93%, 2 W) of 0.11. The Total related material ([3]; relative humidity 93%, 4 W) was 0.62%, the Water ([3]; relative humidity 93%, 4 W) was 3.94% and the Individual related material ([3]; relative humidity 93%, 4 W) was 0.10. The Water solubility [4] was 5900 µg/mL.

With `C[C@@H]1CN(C(=O)CC#N)CC=C1c1cc(NC(=O)C2CC2)nc2[nH]ccc12` [Example 4, (S)—N-(4-(1-(2-cyanoacetyl)-3-methyl-1,2,3,6-tetrahydropyridin-4-yl)-1H-pyrrolo[2,3-b]pyridin-6-yl)cyclopropanecarboxamide] the Individual related material ([1]; Initial) was 0.13%, the Total related material ([1]; Initial) was 1.13% and the Individual related material ([1]; Solid, Control) was 0.14%. The Total related material ([1]; Solid, Control) was 0.14%, the Individual related material ([1]; Solid, UV (200 W-h/m2)) was 0.13% and the Total related material ([1]; Solid, UV (200 W-h/m2)) was 0.27%. It also gave an Individual related material ([1]; Solid, UV + Vis) of 0.13%, a Total related material ([1]; Solid, UV + Vis) of 0.72% and an Individual related material ([1]; Solid, UV + Vis Control) of 0.14%. The Total related material ([1]; Solid, UV + Vis Control) was 0.14%, the Individual related material ([1]; Solid, Vis (1.2M Lux-h)) was 0.13% and the Total related material ([1]; Solid, Vis (1.2M Lux-h)) was 0.68%. For the same molecule, the C.I quantitative ([2]; Initial) was 40.3%, the “Content (anhydride, as anhydride)” value ([2]; Initial) was 100.4% and the Moisture ([2]; Initial) was 0.67%. For the same molecule, the “Purity: Individual related material” value ([2]; Initial) was 0.13%, the “Purity: Total related material” value ([2]; Initial) was 1.13% and the C.I quantitative ([2]; S2W: 2 weeks at 60° C./80% RH) was 40.3%. The “Content (anhydride, as anhydride)” value ([2]; S2W: 2 weeks at 60° C./80% RH) was 101.9%, the “Purity: Individual related material” value ([2]; S2W: 2 weeks at 60° C./80% RH) was 0.23% and the “Purity: Total related material” value ([2]; S2W: 2 weeks at 60° C./80% RH) was 1.32%. The C.I quantitative ([2]; S4W: 4 weeks at 60° C./80% RH) was 40.6%, the “Content (anhydride, as anhydride)” value ([2]; S4W: 4 weeks at 60° C./80% RH) was 101.9% and the Moisture ([2]; S4W: 4 weeks at 60° C./80% RH) was 0.98%. The “Purity: Individual related material” value ([2]; S4W: 4 weeks at 60° C./80% RH) was 0.30%, the “Purity: Total related material” value ([2]; S4W: 4 weeks at 60° C./80% RH) was 1.31% and the Total related material ([3]; Initial) was 1.13%. The Water ([3]; Initial) was 0.67%, the Individual related material ([3]; Initial) was 0.13 and the Total related material ([3]; relative humidity 33%, 2 W) was 1.1%. For the same molecule, the Water ([3]; relative humidity 33%, 2 W) was 0.56%, the Individual related material ([3]; relative humidity 33%, 2 W) was 0.14 and the Total related material ([3]; relative humidity 33%, 4 W) was 1.07%. It also gave a Water ([3]; relative humidity 33%, 4 W) of 0.54%, an Individual related material ([3]; relative humidity 33%, 4 W) of 0.14 and a Total related material ([3]; relative humidity 53%, 2 W) of 1.18%. The Water ([3]; relative humidity 53%, 2 W) was 0.80%, the Individual related material ([3]; relative humidity 53%, 2 W) was 0.15 and the Total related material ([3]; relative humidity 53%, 4 W) was 1.04%. For the same molecule, the Water ([3]; relative humidity 53%, 4 W) was 0.65%, the Individual related material ([3]; relative humidity 53%, 4 W) was 0.15 and the Total related material ([3]; relative humidity 75%, 2 W) was 1.18%. The Water ([3]; relative humidity 75%, 2 W) was 1.44%, the Individual related material ([3]; relative humidity 75%, 2 W) was 0.15 and the Total related material ([3]; relative humidity 75%, 4 W) was 1.18%. For the same molecule, the Water ([3]; relative humidity 75%, 4 W) was 1.02%, the Individual related material ([3]; relative humidity 75%, 4 W) was 0.16 and the Total related material ([3]; relative humidity 93%, 2 W) was 1.17%. For the same molecule, the Water ([3]; relative humidity 93%, 2 W) was 2.03%, the Individual related material ([3]; relative humidity 93%, 2 W) was 0.16 and the Total related material ([3]; relative humidity 93%, 4 W) was 1.15%. For the same molecule, the Water ([3]; relative humidity 93%, 4 W) was 1.72%, the Individual related material ([3]; relative humidity 93%, 4 W) was 0.17 and the Water solubility [4] was 1900 µg/mL.

Work on `C[C@@H]1CN(C(=O)CC#N)CC=C1c1cc(NC(=O)C2CC2)nc2[nH]ccc12` [Example 6, (S)—N-(4-(1-(2-cyanoacetyl)-3-methyl-1,2,3,6-tetrahydropyridin-4-yl)-1H-pyrrolo[2,3-b]pyridin-6-yl)cyclopropanecarboxamide] yielded a Water solubility [4] of 900 µg/mL.

`C[C@@H]1CN(C(=O)CC#N)CC=C1c1cc(NC(=O)C2CC2)nc2[nH]ccc12` [Example 5, (S)—N-(4-(1-(2-cyanoacetyl)-3-methyl-1,2,3,6-tetrahydropyridin-4-yl)-1H-pyrrolo[2,3-b]pyridin-6-yl)cyclopropanecarboxamide] gave an Individual related material ([1]; Initial) of 0.14%, a Total related material ([1]; Initial) of 0.64% and an Individual related material ([1]; Solid, Control) of 0.65%. The Total related material ([1]; Solid, Control) was 0.65%, the Individual related material ([1]; Solid, UV (200 W-h/m2)) was 1% and the Total related material ([1]; Solid, UV (200 W-h/m2)) was 1%. It also gave an Individual related material ([1]; Solid, UV + Vis) of 1.96%, a Total related material ([1]; Solid, UV + Vis) of 1.96% and an Individual related material ([1]; Solid, UV + Vis Control) of 0.78%. For the same molecule, the Total related material ([1]; Solid, UV + Vis Control) was 0.78%, the Individual related material ([1]; Solid, Vis (1.2M Lux-h)) was 1.72% and the Total related material ([1]; Solid, Vis (1.2M Lux-h)) was 1.72%. For the same molecule, the Water solubility [4] was 4600 µg/mL.

— patent US20240300943A1, “NOVEL SALTS OF HETEROCYCLIC COMPOUND AS PROTEIN KINASE INHIBITOR AND USES THEREOF” (HK INNO.N CORPORATION, priority 2021, published 2024)
